According to patent EP2441755A1 (Almirall, S.A., priority 2010, dated 2012):
Where two headings read alike, the source gives them in different places.

Legend:
[1] = molecular target: T1, Recombinant human full-length Syk (Homo sapiens, UniProt P43405); experiment: Syk enzyme assay - radioactive filtration kinase assay; format: biochemical
T1 construct: Recombinant human full-length Syk was supplied by Millipore; purchased Millipore
Method: Syk Enzyme assay- Radioactive filtration kinase assay
Recombinant human full-length Syk was supplied by Millipore. The activity of Syk kinase was assessed using a radioactive filtration kinase assay. […] The reaction was initiated by the addition of 14.5 µl of 0.36 µCi [γ-^33P] ATP (10 mCi/ml, PerkinElmer). This was prepared in a half-area NBS plate (Corning) and allowed to stand at room temperature for 40 min. 15 µl of reaction mixture was transferred to a filter plate (Millipore) previously pre-wetted with a solution of 75 mM phosphoric acid. The reaction was terminated with the addition of 200 µl phosphoric acid. The filter plate was washed three times under vacuum on a vacuum manifold (Millipore cat# MSVMHTS00) at 8" Hg vacuum level with 200 µl phosphoric acid per wash. 30 µl Optiphase™ Supermix (PerkinElmer) was added to each test well and allowed to incubate for at least 1 h before counting. Radioactivity counting was performed in a Wallac MicroBeta®, and the tyrosine phosphorylation activity by Syk was calculated.

LAD2 cells = LAD2 cells assay (degranulation, β-hexosaminidase release); format: cell-based; conditions: Homo sapiens, 0.5 h; IgE-sensitized LAD2 cells, 30 min with compound, activated with 125 ng/ml streptavidin; released β-hexosaminidase; read-out: LAD2IC50
Excerpt: LAD2 is a human mast cell line depending on stem cell factor for its survival, maturation and differentiation. This mast cell line was established by the NIH from bone marrow aspirates from a patient with mast cell sarcoma. LAD2 cells resemble CD34+ - derived human mast cells as they have granules containing tryptase, histamine and β-hexosaminidase. They also express c-kit and FcεRI (Kirshenbaum, et al., Leukemia Research 27: 677-682, 2003).
Sensitization of LAD2 cells
Cells were sensitized (0.2x10^6 cells/ml) in its normal growth factor (Complete StemPro-34 SFM, Gibco 10639-011 containing StemPro-34 nutrient supplement (1/40); glutamine (2 mM) and supplemented with 100 ng/ml SCF) by adding 100 ng/ml of biotin-labeled IgE (USBiological) overnight (16-18 h, 37º, 5% CO2) in a humidified atmosphere (90%).
Compounds were prepared from a 10^-2M stock in 100% DMSO to give seven successive 1/3 dilutions in DMSO. From each concentration, 2 further 1/10 dilutions were prepared in release buffer (137 mM NaCl, 2.70 mM KCI, 0.4 mM NaH2PO4, 5.6 mM (D)-glucose, 1.8 mM CaCl2, 1.3 mM MgSO4, 0.025% BSA). Finally, 5 µl from each diluted concentration were transferred into the assay plate (flat 96-well Nunc). The final compound concentrations tested ranged from 1x10^-5M to […] with a final proportion of DMSO in the assay of 0.1 %. Control wells were treated with 0.1 % DMSO.
Sensitized LAD2 cells were centrifuged (300 g, 3 min, R.T.) and washed 2 times with release buffer. Cells were resuspended in release buffer and adjusted to a density of 0.2x10^6/ml. 45 µl of the adjusted cells were transfered to the assay plate (∼10,000cells/well) containg 5 µl of the final compound concentrations. LAD2 cells were incubated with the compound for 30 min (37 °C, 5% CO2 90% of humidity) and then activated with 125 ng/ml of streptavidin (Pierce 21125) for 30 min (37 °C, 5% CO2, 90% of humidity). After the activation, cells were centrifuged at 1200 g, 10 min, 12 °C and supernatats were removed and transfered to another well for determination of released β-hexosaminidase. Empty wells were filled with 50 µl of release buffer for determination of intracellular β-hexosaminidase. Cells were lysed with 2 cycles of freeze-thaw.
Cells were incubated for 90 minutes, 37 °C with 1 mM β-hexosaminidase substrate (p-nitrophenyl N-acetyl-D-glucosamide, in citric buffer, pH 4.5). Reaction was stopped with 0.4 M glycine solution (pH 10.0) and the plate is read immediately at 405 nm.

[2] = Syk 1nM final, poly-GT 100 µg/ml, [γ-33P] ATP, 40 min at room temperature, read-out: Syk IC50

| IC50 [1, 2] [nM] | Compound | IC50 [1] [nM] | IC50 (LAD2 cells) [nM] |
| --- | --- | --- | --- |
| – | Cc1ccnc(Nc2cccc(-c3ccnc(N4CCNCC4)c3)n2)c1 [Example 14, N-(4-Methylpyridin-2-yl)-2'-piperazin-1-yl-2,4'-bipyridin-6-amine] | 14 | 70 |
| 8 | NCCc1cccc(-c2cccc(Nc3cc(C(F)(F)F)ccn3)n2)c1 [Example 20, N-{6-[3-(2-Aminoethyl)phenyl]pyridin-2-yl}-4-(trifluoromethyl)pyridin-2-amine] | – | 186 |
| 1.18 | FC(F)(F)c1ccnc(Nc2cccc(-c3cccc(C4CCNCC4)c3)n2)c1 [Example 22, N-[6-(3-Piperidin-4-ylphenyl)pyridin-2-yl]-4-(trifluoromethyl)pyridin-2-amine] | – | 368 |
| – | FC(F)(F)c1ccnc(Nc2cccc(-c3cccc(N4CCNCC4)c3)n2)c1 [Example 23, N-[6-(3-Piperazin-1-ylphenyl)pyridin-2-yl]-4-(trifluoromethyl)pyridin-2-amine] | 0.56 | 331 |
| – | FC(F)(F)c1ccnc(Nc2cccc(-c3ccnc(N4CCNCC4)c3)n2)c1 [Example 26, 2'-Piperazin-1-y)-N-[4-(trifluoromethy))pyridin-2-y)]-2,4'-bipyridin-6-amine] | 1.8 | 206 |
| 18 | Cc1ccnc(Nc2cc3ccccc3c(-c3ccnc(N4CCNCC4)c3)n2)c1 [Example 52, N-(4-Methylpyridin-2-yl)-1-(2-piperazin-1-ylpyridin-4-yl)isoquinolin-3-amine] | – | 434 |
| 7 | O=C(Nc1cc(Nc2cnccn2)nc(-c2ccnc(N3CCNCC3)c2)c1)c1cccc(C(F)(F)F)c1 [Example 76, N-[2'-Piperazin-1-yl-6-(pyrazin-2-ylamino)-2,4'-bipyridin-4-yl]-3-(trifluoromethyl) benzamide] | – | 310 |
| 9 | O=C(Nc1cc(Nc2cnccn2)nc(-c2ccnc(N3CCNCC3)c2)c1)c1ccc2c(c1)OCO2 [Example 77, N-[2'-Piperazin-1-yl-6-(pyrazin-2-ylamino)-2,4' -bipyridin-4-yl]-1,3-benzodioxole-5-Carboxamide] | – | 230 |
| 12 | COc1ccc(C(=O)Nc2cc(Nc3cnccn3)nc(-c3ccnc(N4CCNCC4)c3)c2)cc1 [Example 81, 4-Methoxy-N-[2'-piperazin-1-yl-6-(pyrazin-2-ylamino)-2,4'-bipyridin-4-yl]benzamide] | – | 430 |
| 8 | O=C(CCc1ccccc1)Nc1cc(Nc2cnccn2)nc(-c2ccnc(N3CCNCC3)c2)c1 [Example 82, 3-Phenyl-N-[2'-piperazin-1-yl-6-(pyrazin-2-ylamino)-2,4'-bipyridin-4-yl]propanamide] | – | 280 |
| – | Cc1cc(C(=O)Nc2cc(Nc3cnccn3)nc(-c3ccnc(N4CCNCC4)c3)c2)n(C)n1 [Example 83, 1,3-Dimethyl-N-[2'-piperazin-1-yl-6-(pyrazin-2-ylamino)-2,4'-bipyridin-4-yl]-1H-pyrazole-5-Carboxamide] | 7 | 170 |
| 6 | COC(=O)c1cccc(C(=O)Nc2cc(Nc3cnccn3)nc(-c3ccnc(N4CCNCC4)c3)c2)c1 [Example 87, Methyl 3-({[2'-piperazin-1-yl-6-(pyrazin-2-ylamino)-2,4'-bipyridin-4-yl]amino}carbonyl)benzoate] | – | 330 |
| – | O=C(Cc1cccnc1)Nc1cc(Nc2cnccn2)nc(-c2ccnc(N3CCNCC3)c2)c1 [Example 89, N-[2'-Piperazin-1-yl-6-(pyrazin-2-ylamino)-2,4'-bipyridin-4-yl]-2-pyridin-3-ylacetamide] | 4 | 350 |

| Compound | IC50 [1, 2] [nM] | IC50 [1] [nM] | IC50 (LAD2 cells) [nM] |
| --- | --- | --- | --- |
| C1=C(c2cccc(-c3cccc(Nc4cnccn4)n3)c2)CCNC1 [Example 29, N-{6-[3-(1,2,3,6-Tetrahydropyridin-4-y))pheny)]pyridin-2-y)}pyrazin-2-amine] | 20 | – | 183 |
